The species entered for test [1] is Mustela putorius furo. Put plainly: Emetic effect in ferret model, threshold value. The test is classed as functional.
The target of test [2] is 3',5'-cyclic-AMP phosphodiesterase 4A (Homo sapiens, UniProt P27815). Description: PDE4A activity assessed using human recombinant purified GST-PDE4A248.

The structures appear in SMILES notation. Bounds are passed on as bounds.

Chain of 3',5'-cyclic-AMP phosphodiesterase 4A (P27815 whole entry): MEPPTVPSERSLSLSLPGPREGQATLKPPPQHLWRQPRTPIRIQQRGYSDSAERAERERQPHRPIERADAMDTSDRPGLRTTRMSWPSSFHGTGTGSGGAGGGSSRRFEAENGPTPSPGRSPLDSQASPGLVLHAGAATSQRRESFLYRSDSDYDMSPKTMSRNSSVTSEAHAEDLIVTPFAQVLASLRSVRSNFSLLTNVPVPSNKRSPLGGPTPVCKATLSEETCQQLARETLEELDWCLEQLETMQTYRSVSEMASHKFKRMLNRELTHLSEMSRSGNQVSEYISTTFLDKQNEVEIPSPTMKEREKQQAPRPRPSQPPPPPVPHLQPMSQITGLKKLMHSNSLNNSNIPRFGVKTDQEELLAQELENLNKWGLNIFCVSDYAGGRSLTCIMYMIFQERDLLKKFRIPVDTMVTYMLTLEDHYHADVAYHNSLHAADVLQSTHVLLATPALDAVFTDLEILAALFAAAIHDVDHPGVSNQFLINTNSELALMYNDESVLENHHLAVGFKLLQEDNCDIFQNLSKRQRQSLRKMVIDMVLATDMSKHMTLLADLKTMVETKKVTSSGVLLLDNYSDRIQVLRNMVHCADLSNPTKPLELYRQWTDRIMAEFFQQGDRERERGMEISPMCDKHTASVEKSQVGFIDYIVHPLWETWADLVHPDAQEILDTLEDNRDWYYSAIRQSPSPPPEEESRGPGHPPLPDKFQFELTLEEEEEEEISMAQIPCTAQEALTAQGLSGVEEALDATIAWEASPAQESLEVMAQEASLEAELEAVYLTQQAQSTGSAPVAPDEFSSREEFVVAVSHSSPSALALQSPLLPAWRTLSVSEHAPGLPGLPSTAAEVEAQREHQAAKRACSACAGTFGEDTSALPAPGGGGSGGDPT

In general, IC50 refers to the concentration at which inhibition is half-maximal. On to `COc1ccc(-c2ccc(-c3ccccn3)o2)cc1OC1CCCC1`, for which the Threshold value in test [1] is 10 mg/kg. In addition, the IC50 in test [2] was determined as 25 nM. As for `COc1ccc(-c2ccc(-c3ccncc3)o2)cc1OC1CCCC1`, the IC50 in test [2] amounted to 65 nM. Turning to `COc1ccc(-c2ccc(-c3cccnc3)o2)cc1OC1CCCC1`, in test [2], the IC50 came to 370 nM. As for `COc1ccc(-c2cc(C(C)=O)c(-c3ccc(OC)c(OC)c3)o2)cc1OC`, the IC50 in test [2] was found to be 120 nM. Still for that read-out and setting: as for `COc1ccc(-c2oc(-c3ccccn3)cc2C(=O)c2ccccc2)cc1OC1CCCC1`, the figure is 590 nM.

Consider `COc1ccc(-c2ccc(-c3ccc4ccccc4n3)o2)cc1OC1CCCC1`, for which, in test [2], the IC50 stood at 190 nM. Same read-out and setting: in the case of `COc1ccc(-c2oc(-c3ccccn3)cc2S(=O)(=O)c2ccccc2)cc1OC1CCCC1` it was 770 nM; in that of `COc1ccc(-c2ccc(-c3ccc(OC)c(OC4CCCC4)c3)o2)cc1OC1CCCC1`, 44 nM; in that of `COc1ccc(-c2ccc(-c3ccc(OC)c(OC)c3)o2)cc1OC`, 560 nM.

As for `c1ccc(-c2ccc(-c3ccccc3)o2)cc1`, the IC50 in test [2] is greater than 10000 nM. In test [1], `COc1ccc([C@@H]2CNC(=O)C2)cc1OC1CCCC1` [(-)-ROLIPRAM] returned a Threshold value of 0.3 mg/kg. With `c1ccc(-c2cc(N3CCOCC3)c(-c3ccccc3)o2)cc1`, in test [2], the IC50 was found to be 2300 nM.

For the compound `COc1ccc(-c2cc(S(=O)(=O)c3ccccc3)c(-c3ccccn3)o2)cc1OC1CCCC1`, the IC50 in test [2] was found to be 740 nM. Same read-out and setting: as for `O=C(c1ccccc1)c1cc(-c2ccccc2)oc1-c1ccccc1`, the figure is 340 nM.
